Measurements from patent publication US9481676B2, “Azepino[4,5-B]indoles and methods of use” (Medivation Technologies, Inc., priority 2008, dated 2016).

What was measured:
[1] = target: T1, human recombinant serotonin (5-Hydroxytryptamine) 5-HT2A receptor (Homo sapiens, UniProt P28223); assay: Serotonin 5-HT2A radioligand binding ([3H]Ketanserin); settings: compound at 1 μM; read-out: Serotonin (1 μM) 5-HT2A, percent inhibition of specific binding
T1 construct: expressed in transfected cells; host or cells: CHO-K1 cells
T1 sequence (P28223 whole entry): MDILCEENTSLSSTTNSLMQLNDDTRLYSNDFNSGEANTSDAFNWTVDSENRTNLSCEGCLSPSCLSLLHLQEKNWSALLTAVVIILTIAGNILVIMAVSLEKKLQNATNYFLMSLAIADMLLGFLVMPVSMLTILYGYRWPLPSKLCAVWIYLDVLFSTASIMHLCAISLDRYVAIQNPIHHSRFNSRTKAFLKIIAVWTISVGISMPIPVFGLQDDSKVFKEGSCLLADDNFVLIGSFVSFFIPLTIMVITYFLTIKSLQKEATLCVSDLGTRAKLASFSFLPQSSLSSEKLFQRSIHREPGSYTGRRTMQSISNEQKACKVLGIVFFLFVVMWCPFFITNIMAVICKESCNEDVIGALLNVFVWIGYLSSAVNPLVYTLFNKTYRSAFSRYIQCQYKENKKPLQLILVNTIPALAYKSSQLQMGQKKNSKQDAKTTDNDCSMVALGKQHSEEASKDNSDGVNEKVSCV
Summary of the method: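 Percent inhibition of specific [3H]ketanserin (0.5 nM) binding, filtration read-out, with compounds at ≤1 μM (1% DMSO vehicle). Receptor source: recombinant human 5-HT2A in CHO-K1 cells, 50 mM Tris-HCl pH 7.4, 60 min, 25 °C; 1 μM mianserin gives nonspecific binding.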

[2] = target: T2, human recombinant adrenergic α1D receptor (Homo sapiens, UniProt P25100); assay: Adrenergic alpha1D radioligand binding ([3H]Prozosin); settings: compound at 1 μM; read-out: Adrenergic (1 μM) α1D, percent inhibition of specific binding
T2 construct: expressed in transfected cells; host or cells: HEK-293 cells
T2 sequence (P25100 1-572): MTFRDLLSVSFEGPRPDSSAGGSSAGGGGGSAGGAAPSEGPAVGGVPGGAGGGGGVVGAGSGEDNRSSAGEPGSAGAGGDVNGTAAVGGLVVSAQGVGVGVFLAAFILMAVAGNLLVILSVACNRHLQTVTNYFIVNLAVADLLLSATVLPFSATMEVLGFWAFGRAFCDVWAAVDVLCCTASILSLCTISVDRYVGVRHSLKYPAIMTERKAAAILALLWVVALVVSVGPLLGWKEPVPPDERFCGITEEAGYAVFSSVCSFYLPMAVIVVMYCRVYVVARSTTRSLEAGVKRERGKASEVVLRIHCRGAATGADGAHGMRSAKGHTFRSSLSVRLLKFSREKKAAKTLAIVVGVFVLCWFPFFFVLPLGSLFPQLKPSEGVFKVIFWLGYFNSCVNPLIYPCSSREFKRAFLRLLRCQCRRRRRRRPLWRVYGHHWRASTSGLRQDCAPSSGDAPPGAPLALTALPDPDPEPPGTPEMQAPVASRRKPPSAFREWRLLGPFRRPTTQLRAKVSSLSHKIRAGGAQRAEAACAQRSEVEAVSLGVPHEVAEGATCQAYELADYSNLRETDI
Summary of the method: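 Membranes from HEK-293 cells expressing the human receptor in 50 mM Tris-HCl pH 7.4 were incubated 60 min at 25 °C with 0.6 nM [3H]prazosin. Nonspecific binding was defined with 10 μM phentolamine, and bound ligand measured by filtration.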

[3] = target: T3, human recombinant serotonin (5-Hydroxytryptamine) 5-HT6 receptor (Homo sapiens, UniProt P50406); assay: Serotonin 5-HT6 radioligand binding ([3H]LSD); settings: compound at 1 μM; read-out: Serotonin (1 μM) 5-HT6, percent inhibition of specific binding
T3 construct: expressed in transfected cells; host or cells: human HeLa cells
T3 sequence (P50406 whole entry): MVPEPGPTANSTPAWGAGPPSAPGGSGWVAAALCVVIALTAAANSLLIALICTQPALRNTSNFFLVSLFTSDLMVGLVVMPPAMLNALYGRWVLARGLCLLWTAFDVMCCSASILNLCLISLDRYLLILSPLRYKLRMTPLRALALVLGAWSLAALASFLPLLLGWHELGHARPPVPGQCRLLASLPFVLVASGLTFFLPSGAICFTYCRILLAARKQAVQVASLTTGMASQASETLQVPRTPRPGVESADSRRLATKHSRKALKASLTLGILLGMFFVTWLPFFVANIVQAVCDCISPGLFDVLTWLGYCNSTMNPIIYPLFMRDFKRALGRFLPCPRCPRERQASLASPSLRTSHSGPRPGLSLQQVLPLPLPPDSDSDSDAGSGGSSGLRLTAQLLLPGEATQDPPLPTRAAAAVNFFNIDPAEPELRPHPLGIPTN
Summary of the method: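 Human recombinant 5-HT6 receptor from HeLa cells incubated with 1.5 nM [3H]LSD for 120 min at 37° C in 50 mM Tris-HCl pH 7.4, 150 mM NaCl, 2 mM ascorbic acid, 0.001% BSA. Nonspecific binding defined with 5 μM serotonin; bound ligand counted after filtration.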

[4] = target: T4, human recombinant adrenergic α2A receptor (Homo sapiens, UniProt P08913); assay: Adrenergic alpha2A radioligand binding ([3H]MK-912); settings: compound at 1 μM; read-out: Adrenergic (1 μM) α2A, percent inhibition of specific binding
T4 construct: expressed in transfected cells; host or cells: insect Sf9 cells
T4 sequence (P08913 1-465): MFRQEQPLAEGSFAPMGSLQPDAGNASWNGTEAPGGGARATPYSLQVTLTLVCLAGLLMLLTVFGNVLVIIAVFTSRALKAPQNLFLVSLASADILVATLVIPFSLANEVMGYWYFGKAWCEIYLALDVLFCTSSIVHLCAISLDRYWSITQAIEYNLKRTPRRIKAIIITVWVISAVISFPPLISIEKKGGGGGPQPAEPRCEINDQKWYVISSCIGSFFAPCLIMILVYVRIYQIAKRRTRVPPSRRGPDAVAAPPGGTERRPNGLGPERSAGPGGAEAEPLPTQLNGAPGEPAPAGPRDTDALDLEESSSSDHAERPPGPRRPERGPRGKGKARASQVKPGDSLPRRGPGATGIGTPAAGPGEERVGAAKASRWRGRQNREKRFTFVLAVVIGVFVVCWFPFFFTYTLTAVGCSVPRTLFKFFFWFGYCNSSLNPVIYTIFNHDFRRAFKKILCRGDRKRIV
Summary of the method: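 Membranes of Sf9 cells expressing human recombinant α2A receptor were incubated with compound and 1 nM [3H]MK-912 for 60 min at 25 °C in 50 mM Tris-HCl pH 7.4, 12.5 mM MgCl2, 2 mM EDTA. Nonspecific binding: 10 μM WB-4101.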

Row | Compound | inhibition at 1 µM [1] | inhibition at 1 µM [2] | inhibition at 1 µM [3] | inhibition at 1 µM [4]
1 | CN1CCc2c(n(CC(=O)N3CCCCC3)c3ccc(Cl)cc23)CC1 [Compound No. 57, 2-(9-chloro-2,3,4,5-tetrahydro-3-methylazepino[4,5-b]indol-6(1H)-yl)-1-(piperidin-1-yl)ethanone] | 10% | -7% | -1% | -1%
2 | CN1CCc2c(n(CC(O)c3ccc(F)c(F)c3)c3ccc(Cl)cc23)CC1 (centres unmarked) [Compound No. 58, 2-(9-chloro-2,3,4,5-tetrahydro-3-methylazepino[4,5-b]indol-6(1H)-yl)-1-(3,4-difluorophenyl)ethanol] | 100% | 88% | 99% | 95%
3 | Cc1ccc2c(c1)c1c(n2CC(O)c2ccc(F)cc2F)CCN(C)CC1 (centres unmarked) [Compound No. 59, 1-(2,4-difluorophenyl)-2-(2,3,4,5-tetrahydro-3,9-dimethylazepino[4,5-b]indol-6(1H)-yl)ethanol] | 93% | 73% | 97% | 89%
4 | CN1CCc2c(n(CC(=O)N3CCOCC3)c3ccc(Cl)cc23)CC1 [Compound No. 60, 2-(9-chloro-2,3,4,5-tetrahydro-3-methylazepino[4,5-b]indol-6(1H)-yl)-1-morpholinoethanone] | -7% | -1% | 3% | 7%
5 | CN1CCc2c(n(CCc3ccccc3F)c3ccc(Cl)cc23)CC1 [Compound No. 61, 6-(2-fluorophenethyl)-9-chloro-1,2,3,4,5,6-hexahydro-3-methylazepino[4,5-b]indole] | 43% | -5% | 5% | 23%
6 | Cc1ccc2c(c1)c1c(n2CCc2ccccc2)CCN(C)CC1 [Compound No. 62, 1,2,3,4,5,6-hexahydro-3,9-dimethyl-6-phenethylazepino[4,5-b]indole] | 12% | 12% | -4% | 11%
7 | Cc1ccc2c(c1)c1c(n2CCc2ccccc2F)CCN(C)CC1 [Compound No. 63, 6-(2-fluorophenethyl)-1,2,3,4,5,6-hexahydro-3,9-dimethylazepino[4,5-b]indole] | 91% | 77% | 101% | 96%
8 | COc1ccc(C(O)Cn2c3c(c4cc(Cl)ccc42)CCN(C)CC3)cc1F (centres unmarked) [Compound No. 67, 2-(9-chloro-2,3,4,5-tetrahydro-3-methylazepino[4,5-b]indol-6(1H)-yl)-1-(3-fluoro-4-methoxyphenyl) ethanol] | 100% | 90% | 86% | 102%
9 | COc1ccc(C(O)Cn2c3c(c4cc(C)ccc42)CCN(C)CC3)cc1F (centres unmarked) [Compound No. 68, 1-(3-fluoro-4-methoxyphenyl)-2-(2,3,4,5-tetrahydro-3,9-dimethylazepino[4,5-b]indol-6(1H)-yl)ethanol] | 99% | 93% | 87% | 99%
10 | Cc1ccc2c(c1)c1c(n2CCc2ccccc2Cl)CCN(C)CC1 [Compound No. 69, 6-(2-chlorophenethyl)-1,2,3,4,5,6-hexahydro-3,9-dimethylazepino[4,5-b]indole] | 52% | -5% | -4% | 8%
11 | CN1CCc2c(n(CC(=O)N3CCNCC3)c3ccc(Cl)cc23)CC1 [Compound No. 72, 2-(9-chloro-2,3,4,5-tetrahydro-3-methylazepino[4,5-b]indol-6(1H)-yl)-1-(piperazin-1-yl)ethanone] | 23% | 17% | 39% | -6%
12 | CN1CCc2c(n(CC(=O)Nc3ccccc3)c3ccc(Cl)cc23)CC1 [Compound No. 73, 2-(9-chloro-2,3,4,5-tetrahydro-3-methylazepino[4,5-b]indol-6(1H)-yl)-N-phenylacetamide] | 18% | 1% | 0% | 28%
13 | CN1CCc2c(n(CC(=O)N(C)C3CCCCC3)c3ccc(Cl)cc23)CC1 [Compound No. 74, 2-(9-chloro-2,3,4,5-tetrahydro-3-methylazepino[4,5-b]indol-6(1H)-yl)-N-cyclohexyl-N-methylacetamide] | 27% | 17% | -4% | 19%
14 | CN1CCc2c(n(CC(=O)OCc3ccccc3)c3ccc(Cl)cc23)CC1 [Compound No. 75, Benzyl-2-(9-chloro-2,3,4,5-tetrahydro-3-methylazepino[4,5-b]indol-6(1H)-yl)acetate] | 34% | 7% | -2% | 7%
15 | Cc1ccc2c(c1)c1c(n2/C=C/c2ccccc2)CCN(C)CC1 [Compound No. 229, (E)-3,9-dimethyl-6-styryl-1,2,3,4,5,6-hexahydroazepino[4,5-b]indole] | 100% | 97% | 102% | 100%
16 | COc1ccc(/C=C/n2c3c(c4cc(C)ccc42)CCN(C)CC3)c(F)c1 [Compound No. 230, (E)-6-(2-fluoro-4-methoxystyryl)-3,9-dimethyl-1,2,3,4,5,6-hexahydroazepino[4,5-b]indole] | 97% | 97% | 100% | 102%
17 | Cc1ccc2c(c1)c1c(n2CC(=O)N(C)C2CCCCC2)CCN(C)CC1 [Compound No. 232, N-cyclohexyl-2-(3,9-dimethyl-2,3,4,5-tetrahydroazepino[4,5-b]indol-6(1H)-yl)-N-methylacetamide] | 70% | 29% | 20% | 90%
18 | Cc1ccc2c(c1)c1c(n2/C=C/c2ccccc2F)CCN(C)CC1 [Compound No. 233, (E)-6-(2-fluorostyryl)-3,9-dimethyl-1,2,3,4,5,6-hexahydroazepino[4,5-b]indole] | 102% | 96% | 103% | 97%
19 | CN1CCc2c(n(/C=C/c3ccc(F)cc3)c3ccc(Cl)cc23)CC1 [Compound No. 234, (E)-9-chloro-6-(4-fluorostyryl)-3-methyl-1,2,3,4,5,6-hexahydroazepino[4,5-b]indole] | 101% | 97% | 103% | 98%
20 | Cc1ccc2c(c1)c1c(n2/C=C/c2ccc(Cl)cc2)CCN(C)CC1 [Compound No. 235, (E)-6-(4-chlorostyryl)-3,9-dimethyl-1,2,3,4,5,6-hexahydroazepino[4,5-b]indole] | 102% | 95% | 97% | 95%
